Entries after “also recorded” stand apart in the source; their conditions may differ.
T1: gp130 (Homo sapiens, UniProt P40189)
T1 construct: endogenous in cells; host or cells: adult human articular chondrocytes (three donors)
T1 sequence (P40189 23-918): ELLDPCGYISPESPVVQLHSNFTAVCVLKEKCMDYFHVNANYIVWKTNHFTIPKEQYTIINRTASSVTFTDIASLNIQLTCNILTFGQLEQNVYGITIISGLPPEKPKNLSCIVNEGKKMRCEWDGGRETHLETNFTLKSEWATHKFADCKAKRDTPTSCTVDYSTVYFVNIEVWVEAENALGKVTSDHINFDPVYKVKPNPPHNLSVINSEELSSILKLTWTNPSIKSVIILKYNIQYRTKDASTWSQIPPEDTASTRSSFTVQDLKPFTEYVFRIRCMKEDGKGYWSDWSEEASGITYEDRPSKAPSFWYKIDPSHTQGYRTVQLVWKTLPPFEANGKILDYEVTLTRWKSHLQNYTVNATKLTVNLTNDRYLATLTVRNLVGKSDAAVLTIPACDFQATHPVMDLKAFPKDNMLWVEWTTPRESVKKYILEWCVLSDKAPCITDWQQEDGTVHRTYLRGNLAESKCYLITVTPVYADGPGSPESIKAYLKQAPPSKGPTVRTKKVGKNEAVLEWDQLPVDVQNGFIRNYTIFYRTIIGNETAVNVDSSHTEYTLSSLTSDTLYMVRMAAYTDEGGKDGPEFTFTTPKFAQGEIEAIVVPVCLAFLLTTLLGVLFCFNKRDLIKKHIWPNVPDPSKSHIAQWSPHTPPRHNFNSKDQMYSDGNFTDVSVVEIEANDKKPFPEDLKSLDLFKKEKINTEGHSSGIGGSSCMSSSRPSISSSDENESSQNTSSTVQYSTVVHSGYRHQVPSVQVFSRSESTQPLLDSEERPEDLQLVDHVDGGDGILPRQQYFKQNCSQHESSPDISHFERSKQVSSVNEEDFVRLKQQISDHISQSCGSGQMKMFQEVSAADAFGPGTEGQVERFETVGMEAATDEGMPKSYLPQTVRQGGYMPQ

T2: gp130 (Rattus norvegicus, UniProt P40190)
T2 construct: from tissue; host or cells: rat knee joint in vivo (Sprague-Dawley wild-type in the CFA model)
T2 sequence (P40190 23-918): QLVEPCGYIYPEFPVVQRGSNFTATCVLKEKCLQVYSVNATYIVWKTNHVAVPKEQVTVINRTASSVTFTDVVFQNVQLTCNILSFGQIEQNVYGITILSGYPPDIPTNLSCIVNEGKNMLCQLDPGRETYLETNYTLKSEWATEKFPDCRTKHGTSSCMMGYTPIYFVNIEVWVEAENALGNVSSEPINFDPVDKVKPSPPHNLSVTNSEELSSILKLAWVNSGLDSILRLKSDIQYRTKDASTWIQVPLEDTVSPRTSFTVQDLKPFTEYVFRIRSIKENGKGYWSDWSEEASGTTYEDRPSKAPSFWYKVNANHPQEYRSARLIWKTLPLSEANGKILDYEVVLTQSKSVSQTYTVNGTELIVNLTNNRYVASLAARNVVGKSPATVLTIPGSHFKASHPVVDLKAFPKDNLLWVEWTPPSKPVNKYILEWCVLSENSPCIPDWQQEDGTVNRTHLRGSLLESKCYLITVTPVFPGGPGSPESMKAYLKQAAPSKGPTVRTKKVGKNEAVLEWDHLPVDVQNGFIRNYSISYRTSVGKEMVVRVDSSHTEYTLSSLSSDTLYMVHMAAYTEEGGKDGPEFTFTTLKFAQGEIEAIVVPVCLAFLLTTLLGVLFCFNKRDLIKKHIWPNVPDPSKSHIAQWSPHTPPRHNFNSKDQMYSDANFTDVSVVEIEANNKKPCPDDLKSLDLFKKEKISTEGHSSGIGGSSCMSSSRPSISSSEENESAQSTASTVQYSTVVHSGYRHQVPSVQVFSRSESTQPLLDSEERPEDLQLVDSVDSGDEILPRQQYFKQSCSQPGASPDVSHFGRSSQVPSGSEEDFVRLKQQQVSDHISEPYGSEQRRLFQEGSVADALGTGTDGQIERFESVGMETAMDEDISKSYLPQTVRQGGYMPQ


What was measured:
gp130 [1] = target: T1, gp130; assay: OSM-mediated activation of gp130 in adult human articular chondrocytes; assay type: cell-based; conditions: three independent donors
Description: 423F is the positive control drug. Adult human articular chondrocytes from three independent donors were used to generate the results.
Adult human articular chondrocytes from three independent donors were used to generate the results.
Adult human articular chondrocytes from three independent donors were used.

[2] = test system: adult pig articular chondrocytes; assay: Western blot of signaling proteins (pSTAT3, MYC, MAPK, AKT, NF-κB) in pig articular chondrocytes; assay type: cell-based; conditions: for levels of active STAT3 (pSTAT3) and MYC proteins: Western blot, analogs at 10 μM; for activation of the MAPK, AKT and NF-κB pathways: adult pig articular chondrocytes
Procedure: (A) Class 1 molecules (marked by red arrows) activate STAT3 and MYC signaling pathways wile Class 2 molecules (blue arrows) have no stimulatory effects on STAT3 and MYC signaling in chondrocytes as determined by western blot analysis. (B) Structures of the most prominent Class 1 and Class 2 molecules. […] All drugs were tested at 10 μM and assessed using Western Blot.
All drugs tested at 10 μM and assessed using Western Blot.
(§1) To begin to address the mechanism of action of RCGD 423, adult pig chondrocytes were incubated with the drug, IL-6 family cytokines or the pro-catabolic cytokines TNF-α and IL-1β and measured levels of various proteins downstream of these cytokines that are known to drive catabolic responses (FIG. 3).
(§2) Firstly, RCGD 423 was a hit from a library; this made the depth of the discovery surrounding the technology less comprehensive. Additionally, the physical properties of RCGD 423 (solubility, potency, functional groups) could be improved. Significant gains in these areas could potentially result in a first-in-class injectable for the treatment of post-traumatic OA. Moreover, the potential risks associated with promoting MYC stabilization and proliferation in gp130^+ cells as well as large increases in active STAT3 protein was of concern. […] These compounds were then screened in adult pig articular chondrocytes and cartilage explants, seeking compounds that could inhibit the catabolic effects of OSM but not drive increases in MYC and pSTAT3 protein levels. […] Together, these preliminary data identify CX-011 (B8) as a highly anti-inflammatory, anti-catabolic alternative to RCGD 423, with increased “drug-like” properties and reduced potential molecular liabilities.

[3] = test system: pig articular cartilage explants; assay: Matrix degradation assay, OSM-driven, pig articular cartilage explants; assay type: cell-based; conditions: driven by OSM
Procedure: FIG. 22A-C show matrix degradation assays.
72 hour exposure to the drug and OSM. […] Effect is concentration dependent and increases with increase in drug concentration.
as §2

[4] = test system: adult pig articular chondrocytes; assay: Proteins mediating pro-inflammatory signals with or without OSM; assay type: cell-based
Description: as §2

ADAMTS4/5 and MMP13 = assay: qPCR for proteolytic enzymes in adult pig chondrocytes; assay type: cell-based
Procedure: as §1

gp130 [5] = target: T2, gp130; assay: Injection into rat knees, pSTAT3 and MYC levels; assay type: in vivo; conditions: co-injection with RCGD 423 into rat knees
Procedure: Based on this, it was hypothesized that RCGD 423 acts through gp130 by promoting stable homodimers in the absence of ligand. To confirm that RCGD 423 acts through gp130, the gp130 null cell line Ba/F3 cells was used. Ba/F3 cells were transfected with either full-length gp130 or a mutant gp130 lacking domain 2 (ΔD2), which contains the predicted binding site for RCGD 423 (FIG. 7). […] To verify the specificity of RCGD 423 in vivo, the compound was injected into rat knees in the presence of the small molecule gp130 inhibitor SC144 or a blocking antibody specific for domain 2 of gp130. […] The ability of RCGD 423 to act via inducing formation of gp130 homodimers was then examined by expressing tagged versions of gp130 in 293T cells. In this system, only homodimeric complexes can contain both tagged versions of gp130 (FIG. 9).

MMP13 and ADAMTS4 = assay: OSM-induced MMP13 and ADAMTS4 levels; assay type: cell-based

| Molecule | OSM-mediated activation of gp130 (gp130 [1]) | levels of active STAT3 (pSTAT3) and MYC proteins [2] | breakdown of collagen and aggrecan (aggrecan-neo, collagen-neo epitopes) [3] | other results |
| --- | --- | --- | --- | --- |
| Cc1ccccc1-c1csc(NC(=O)c2ccno2)n1 [B815] | inhibit OSM-mediated activation of gp130; also recorded: inhibit OSM-mediate d activation of gp130 | – | – | – |
| Cc1ccc(-c2cccc(NC(=O)c3ccno3)n2)cc1 [B810] | – | pSTAT3 and MYC activating | can also strongly prevent the breakdown of collagent and aggrecan | – |
| Cc1ccccc1-c1cccc(NC(=O)c2ccno2)n1 [B849] | – | – | can still strongly prevent the breakdown of collagen and aggrecan | – |
| Cc1ccc(-c2nc(NC(=O)c3ccccn3)cs2)cc1 [B843] | – | – | can still strongly prevent the breakdown of collagen and aggrecan | – |
| Cc1ccc(-c2csc(NC(=O)c3oncc3C)n2)cc1 [B840] | – | pSTAT3 and MYC activating | can also strongly prevent the breakdown of collagent and aggrecan | – |
| Cc1ccc(-c2csc(NC(=O)c3ccno3)n2)cc1 [B8] | inhibit OSM-mediated activation of gp130 | – | – | levels of active STAT3 (pSTAT3) and MYC proteins ([2]; listed as CX-011): do not affect levels of pSTAT3 or MYC protein; levels of active STAT3 (pSTAT3) and MYC proteins ([2]; listed as CX-011 (B8)): did not increase levels of pSTAT3 and MYC; breakdown of collagen and aggrecan (aggrecan-neo, collagen-neo epitopes) ([3]; listed as CX-011): prevents the breakdown of collagen and aggrecan; increase in catalytic enzymes / induction of proteolytic gene expression ([3]; listed as CX-011): prevents; breakdown of collagen and aggrecan (aggrecan-neo, collagen-neo epitopes) ([3]; listed as CX-011 (B8)): almost completely blocked the generation of aggrecan and collagen neoepitopes; increase in catalytic enzymes / induction of proteolytic gene expression ([3]; listed as CX-011 (B8)): reduced the induction of proteolytic gene expression; increases in proteins mediating pro-inflammatory signals ([4]; in the presence of OSM): strongly inhibits increases in these proteins in the presence of OSM; endogenous levels of proteins mediating pro-inflammatory signals ([4]; without OSM): little effect |
| IL-6: IL-6 family cytokine | – | increased levels of active STAT3 and MYC proteins | – | activation of the MAPK, AKT and NF-κB pathways [2]: activated the MAPK, AKT and NF-κB pathways; expression of proteolytic enzymes ADAMTS4/5 and MMP13 (ADAMTS4/5 and MMP13): significant increases in the expression of these genes |
| O=C(Nc1nc(C2CC2)cs1)c1ccno1 [B826] | strongly inhibits OSM-mediated activation of gp130 | – | can still strongly prevent the breakdown of collagen and aggrecan | – |
| Cc1ccc(-c2csc(NC(=O)c3cnco3)n2)cc1 [B803] | inhibit OSM-mediated activation of gp130; also recorded: inhibit OSM-mediate d activation of gp130 | – | – | – |
| Cc1ccc(-c2cccc(NC(=O)c3ccccn3)n2)cc1 [B839] | – | – | strongly prevent the breakdown of collagen and aggrecan | – |
| O=C(NNc1nc2cc(F)ccc2n2cccc12)c1cnccn1 [SC144] | – | – | – | blockade of signaling downstream of RCGD 423 (gp130 [5]): completely inhibited signaling downstream of RCGD 423; also recorded: could be blocked by co-injection |
| LIF: leukemia inhibitory factor, IL-6 family cytokine | – | increased levels of active STAT3 and MYC proteins | – | activation of the MAPK, AKT and NF-κB pathways [2]: activated the MAPK, AKT and NF-κB pathways; expression of proteolytic enzymes ADAMTS4/5 and MMP13 (ADAMTS4/5 and MMP13): significant increases in the expression of these genes |
| OSM: pro-inflammatory cytokine oncostatin M (protein, UniProt P13725 26-221, looked up) Oncostatin-M: AAIGSCSKEYRVLLGQLQKQTDLMQDTSRLLDPYIRIQGLDVPKLREHCRERPGAFPSEETLRGLGRRGFLQTLNATLGCVLHRLADLEQRLPKAQDLERSGLNIEDLEKLQMARPNILGLRNNIYCMAQLLDNSDTAEPTKAGRGASQPPTPTPASDAFQRKLEGCRFLHGYHRFMHSVGRVFSKWGESPNRSRR | – | – | – | levels of MMP13 and ADAMTS4 (degradation of cartilage matrix proteins) (MMP13 and ADAMTS4): upregulates levels of MMP13 and ADAMTS proteases |

From patent publication US12577238B2, “Compositions and methods for modulating inflammatory and degenerative disorder” (University of Southern California, priority 2018, dated 2026)
